Data reported in PMC6297231 (Nature Communications, 2018).

Legend:
ULA [1] = assay: Cell viability assay; type: cell-based; conditions: 24 h; ULA (NHL); read-out: AZD5991 24h GI50
Experimental: (§2) Cells were plated at 3000 cells/well in 384-well white plates in corresponding cell growth media. […] Caspase-3/7 activation was subsequently determined using a Caspase-Glo 3/7 Reagent (Promega) and viability was assayed using the CellTiter-Glo Reagent (Promega) as described in manufacturer’s instructions. Dose–response curves for caspase-3/7 activation and viability were plotted and analyzed (including EC50 and GI50 determination) using GraphPad Prism.

KMS26 = assay: cells; conditions: KMS-26, 6 h, read-out: AZD5991 6h EC50
How it was run: (§1)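 Cells were seeded at 3000 cells/well in their respective growth media and treated with compound. Caspase-3/7 activation was read by Caspase-Glo 3/7 luminescence and viability by CellTiter-Glo; EC50 and GI50 came from dose–response curves. Caspase activation is expressed relative to a cell-kill control set at 100%.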

Sudhl4 = assay: cells; conditions: Homo sapiens, SU-DHL-4, 6 h, read-out: AZD5991 6h EC50
How it was run: as §1

KMS12PE = assay: cells; conditions: Homo sapiens, KMS-12-PE, 6 h, read-out: AZD5991 6h EC50
How it was run: as §1

U2OS = assay: cells; conditions: Homo sapiens, 6 h, read-out: AZD5991 6h EC50
How it was run: as §1

H647 = assay: cells; conditions: Homo sapiens, NCI-H647, 6 h, read-out: AZD5991 6h EC50
How it was run: as §1

THP-1 = assay: cells; conditions: Homo sapiens, THP-1, 6 h, read-out: AZD5991 6h EC50
How it was run: as §1

SNU1197 = assay: cells; conditions: 6 h, read-out: AZD5991 6h EC50
How it was run: as §1

OE21 = assay: cells; conditions: OE21, 6 h, read-out: AZD5991 6h EC50
How it was run: as §1

LUDLU1 = assay: cells; conditions: LUDLU-1, 6 h, read-out: AZD5991 6h EC50
How it was run: as §1

Sudhl5 = assay: cells; conditions: Homo sapiens, SU-DHL-5, 6 h, read-out: AZD5991 6h EC50
How it was run: as §1

VAL = assay: cells; conditions: 6 h, read-out: AZD5991 6h EC50
How it was run: as §1

HCC1954 = assay: cells; conditions: Homo sapiens, HCC1954, 6 h, read-out: AZD5991 6h EC50
How it was run: as §1

Toledo = assay: cells; conditions: Homo sapiens, 6 h, read-out: AZD5991 6h EC50
How it was run: as §1

ARH77 = assay: cells; conditions: Homo sapiens, ARH-77, 6 h, read-out: AZD5991 6h EC50
How it was run: as §1

ULA [2] = assay: cells; conditions: 6 h, read-out: AZD5991 6h EC50
How it was run: as §1

SKMEL3 = assay: cells; conditions: Homo sapiens, SK-MEL3, 6 h, read-out: AZD5991 6h EC50
How it was run: as §1

KMS12BM = assay: cells; conditions: Homo sapiens, KMS-12-BM, 6 h, read-out: AZD5991 6h EC50
How it was run: as §1

SBC5 = assay: cells; conditions: Homo sapiens, SBC-5, 6 h, read-out: AZD5991 6h EC50
How it was run: as §1

MONOMAC6 = assay: cells; conditions: Homo sapiens, MONO-MAC-6, 6 h, read-out: AZD5991 6h EC50
How it was run: as §1

Daudi [3] = assay: cells; conditions: Homo sapiens, 6 h, read-out: AZD5991 6h EC50
How it was run: as §1

OCIAML2 = assay: cells; conditions: Homo sapiens, OCI-AML2, 6 h, read-out: AZD5991 6h EC50
How it was run: as §1

Pfeiffer = assay: cells; conditions: Homo sapiens, 6 h, read-out: AZD5991 6h EC50
How it was run: as §1

DOHH2 = assay: cells; conditions: Homo sapiens, DOHH-2, 6 h, read-out: AZD5991 6h EC50
How it was run: as §1

FaDu = assay: cells; conditions: Homo sapiens, 6 h, read-out: AZD5991 6h EC50
How it was run: as §1

RT4 = assay: cells; conditions: Homo sapiens, RT-4, 6 h, read-out: AZD5991 6h EC50
How it was run: as §1

H2110 = assay: cells; conditions: NCI-H2110, 6 h, read-out: AZD5991 6h EC50
How it was run: as §1

H1395 = assay: cells; conditions: Homo sapiens, NCI-H1395, 6 h, read-out: AZD5991 6h EC50
How it was run: as §1

OCILY10 = assay: cells; conditions: Homo sapiens, OCI-Ly10, 6 h, read-out: AZD5991 6h EC50
How it was run: as §1

EVSAT = assay: cells; conditions: Homo sapiens, EVSA-T, 6 h, read-out: AZD5991 6h EC50
How it was run: as §1

DU145 = assay: cells; conditions: Homo sapiens, DU-145, 6 h, read-out: AZD5991 6h EC50
How it was run: as §1

MUTZ3 = assay: cells; conditions: 6 h, read-out: AZD5991 6h EC50
How it was run: as §1

A375 = assay: cells; conditions: Homo sapiens, A-375, 6 h, read-out: AZD5991 6h EC50
How it was run: as §1

H2171 = assay: cells; conditions: Homo sapiens, NCI-H2171, 6 h, read-out: AZD5991 6h EC50
How it was run: as §1

RCPIWM1 = assay: cells; conditions: 6 h, read-out: AZD5991 6h EC50
How it was run: as §1

RI1 = assay: Cell viability assay; type: cell-based; conditions: Ri-1, 24 h; RI1 (NHL); read-out: AZD5991 24h GI50
Experimental: as §2

Daudi [4] = assay: Cell viability assay; type: cell-based; conditions: Homo sapiens, 24 h; Daudi (NHL); read-out: AZD5991 24h GI50
Experimental: as §2

**Q.** Cc1c2c(nn1C)CSCc1cc(n(C)n1)CSc1cc(c3ccccc3c1)OCCCc1c(C(=O)O)n(C)c3c-2c(Cl)ccc13 (atropisomer, axis not shown; (Ra)) [(Ra)-7] was tested. Which GI50 (ULA [1]) did it give?
**A.** 91 nM

**Q.** And the EC50 (KMS26)?
**A.** 144 nM

**Q.** And the EC50 (Sudhl4)?
**A.** 266 nM

**Q.** And the EC50 (KMS12PE)?
**A.** 383 nM

**Q.** What about the EC50 (U2OS) of the same compound?
**A.** > 30000 nM

**Q.** What about the EC50 (H647) of the same compound?
**A.** > 30000 nM

**Q.** What about the EC50 (THP-1) of the same compound?
**A.** 125 nM

**Q.** And the EC50 (SNU1197)?
**A.** > 30000 nM

**Q.** What about the EC50 (OE21) of the same compound?
**A.** 187 nM

**Q.** And the EC50 (LUDLU1)?
**A.** 1890 nM

**Q.** And the EC50 (Sudhl5)?
**A.** 19 nM

**Q.** What about the EC50 (VAL) of the same compound?
**A.** 172 nM

**Q.** What about the EC50 (HCC1954) of the same compound?
**A.** 682 nM

**Q.** What about the EC50 (Toledo) of the same compound?
**A.** 1260 nM

**Q.** And the EC50 (ARH77)?
**A.** 23900 nM

**Q.** And the EC50 (ULA [2])?
**A.** 207 nM

**Q.** What about the EC50 (SKMEL3) of the same compound?
**A.** > 30000 nM

**Q.** And the EC50 (KMS12BM)?
**A.** 56 nM

**Q.** What about the EC50 (SBC5) of the same compound?
**A.** 1120 nM

**Q.** And the EC50 (MONOMAC6)?
**A.** 268 nM

**Q.** And the EC50 (Daudi [3])?
**A.** 16100 nM

**Q.** And the EC50 (OCIAML2)?
**A.** 472 nM

**Q.** What about the EC50 (Pfeiffer) of the same compound?
**A.** > 30000 nM

**Q.** What about the EC50 (DOHH2) of the same compound?
**A.** 136 nM

**Q.** And the EC50 (FaDu)?
**A.** 23300 nM

**Q.** And the EC50 (RT4)?
**A.** 18100 nM

**Q.** And the EC50 (H2110)?
**A.** 226 nM

**Q.** What about the EC50 (H1395) of the same compound?
**A.** 15400 nM

**Q.** And the EC50 (OCILY10)?
**A.** 117 nM

**Q.** What about the EC50 (EVSAT) of the same compound?
**A.** 160 nM

**Q.** What about the EC50 (DU145) of the same compound?
**A.** > 30000 nM

**Q.** What about the EC50 (MUTZ3) of the same compound?
**A.** 26 nM

**Q.** What about the EC50 (A375) of the same compound?
**A.** > 30000 nM

**Q.** And the EC50 (H2171)?
**A.** 141 nM

**Q.** What about the EC50 (RCPIWM1) of the same compound?
**A.** 39 nM

**Q.** What about the GI50 (RI1) of the same compound?
**A.** 28200 nM

**Q.** What about the GI50 (Daudi [4]) of the same compound?
**A.** 133 nM
